Test: xn = mol fraction of the nth substance listed
Details: 101.3 kPa, Liquid

C=CN1CCCC1=O [N-vinylpyrrolidone] + O
Details	mass density [kg/m3]	speed of sound [m/s]	viscosity [mPa·s]
298.15 K, x2 = 0.0557	1042.3	1533.7	4.243
298.15 K, x2 = 0.1591	1043.33	1548.1	–
298.15 K, x2 = 0.2543	1044.19	1563.3	3.875
298.15 K, x2 = 0.3503	1044.83	1580.9	3.75
298.15 K, x2 = 0.4525	1045.46	1598.7	3.717
298.15 K, x2 = 0.5028	1045.82	1609.9	3.742
298.15 K, x2 = 0.5539	1046.19	1618.5	3.792
298.15 K, x2 = 0.6546	1046.56	1635.8	3.91
298.15 K, x2 = 0.7505	1045.06	1649.2	3.904
298.15 K, x2 = 0.8519	1037.72	1648.2	3.466
298.15 K, x2 = 0.8751	1034.5	1646.7	3.255
298.15 K, x2 = 0.8852	1032.84	1644.4	3.145
298.15 K, x2 = 0.9001	1030.08	1640	2.962
298.15 K, x2 = 0.9251	1024.45	1623.7	2.591
298.15 K, x2 = 0.9357	1021.63	1613.8	2.408
298.15 K, x2 = 0.9554	1015.6	1589.5	2.021
298.15 K, x2 = 0.9649	1012.26	1574.7	–
298.15 K, x2 = 0.9749	1008.43	1556.5	1.573
298.15 K, x2 = 0.9903	1001.77	1523.1	1.169
308.15 K, x2 = 0.0557	1033.43	1502.5	2.907
308.15 K, x2 = 0.1591	1034.36	1514.3	2.809
308.15 K, x2 = 0.2543	1035.14	1526.7	2.718
308.15 K, x2 = 0.3503	1035.73	1541.2	2.667
308.15 K, x2 = 0.4525	1036.33	1556.2	2.694
308.15 K, x2 = 0.5028	1036.61	1565.6	2.742
308.15 K, x2 = 0.5539	1037.01	1573.3	2.807
308.15 K, x2 = 0.6546	1037.41	1589.3	2.954
308.15 K, x2 = 0.7505	1036.16	1603.4	3.001
308.15 K, x2 = 0.8519	1029.8	1609.5	2.703
308.15 K, x2 = 0.8751	1026.99	1610.5	2.545
308.15 K, x2 = 0.8852	1025.54	1609.8	2.463
308.15 K, x2 = 0.9001	1023.12	1608.2	2.324
308.15 K, x2 = 0.9251	1018.18	1599.1	2.04
308.15 K, x2 = 0.9357	1015.71	1593.2	1.9
308.15 K, x2 = 0.9554	1010.4	1578.2	1.6
308.15 K, x2 = 0.9649	1007.47	1568.8	1.437
308.15 K, x2 = 0.9749	1004.09	1557.1	1.252
308.15 K, x2 = 0.9903	998.206	1535.4	0.932
318.15 K, x2 = 0.0557	1024.6	1470.5	2.552
318.15 K, x2 = 0.1591	1025.41	1480.4	2.454
318.15 K, x2 = 0.2543	1026.11	1490.9	2.362
318.15 K, x2 = 0.3503	1026.63	1503.3	2.305
318.15 K, x2 = 0.4525	1027.16	1516.6	2.31
318.15 K, x2 = 0.5028	1027.46	1524.9	2.34
318.15 K, x2 = 0.5539	1027.78	1532.1	2.385
318.15 K, x2 = 0.6546	1028.14	1547.7	2.488
318.15 K, x2 = 0.7505	1027.08	1563.3	2.509
318.15 K, x2 = 0.8519	1021.56	1576	2.249
318.15 K, x2 = 0.8751	1019.1	1579.4	2.115
318.15 K, x2 = 0.8852	1017.84	1580.1	2.046
318.15 K, x2 = 0.9001	1015.73	1580.9	1.929
318.15 K, x2 = 0.9251	1011.41	1577.9	1.692
318.15 K, x2 = 0.9357	1009.25	1575.3	1.576
318.15 K, x2 = 0.9554	1004.59	1567.9	1.326
318.15 K, x2 = 0.9649	1002.02	1562.9	1.191
318.15 K, x2 = 0.9749	999.05	1556.6	1.037
318.15 K, x2 = 0.9903	993.883	1544.4	0.776
328.15 K, x2 = 0.0557	1015.77	1433	2.221
328.15 K, x2 = 0.1591	1016.49	1441.7	2.128
328.15 K, x2 = 0.2543	1017.1	1451.2	2.042
328.15 K, x2 = 0.3503	1017.56	1462.3	1.983
328.15 K, x2 = 0.4525	1018.03	1474.7	1.975
328.15 K, x2 = 0.5028	1018.3	1482.4	1.993
328.15 K, x2 = 0.5539	1018.58	1489.6	2.025
328.15 K, x2 = 0.6546	1018.91	1505.7	2.096
328.15 K, x2 = 0.7505	1018	1523.4	2.103
328.15 K, x2 = 0.8519	1013.18	1542.9	1.876
328.15 K, x2 = 0.8751	1011.04	1548.6	1.763
328.15 K, x2 = 0.8852	1009.94	1550.7	1.705
328.15 K, x2 = 0.9001	1008.09	1553.7	1.609
328.15 K, x2 = 0.9251	1004.31	1556.2	1.411
328.15 K, x2 = 0.9357	1002.41	1556.5	1.314
328.15 K, x2 = 0.9554	998.333	1556.6	1.108
328.15 K, x2 = 0.9649	996.075	1554.4	0.995
328.15 K, x2 = 0.9749	993.467	1552.6	0.868
328.15 K, x2 = 0.9903	988.924	1548.5	0.652
338.15 K, x2 = 0.0557	1006.93	1406	1.807
338.15 K, x2 = 0.1591	1007.56	1413.8	1.736
338.15 K, x2 = 0.2543	1008.1	1422.3	1.668
338.15 K, x2 = 0.3503	1008.51	1432.4	1.624
338.15 K, x2 = 0.4525	1008.92	1444.1	1.621
338.15 K, x2 = 0.5028	1009.15	1451.3	1.639
338.15 K, x2 = 0.5539	1009.4	1458.3	1.667
338.15 K, x2 = 0.6546	1009.7	1474.6	1.73
338.15 K, x2 = 0.7505	1008.9	1493.7	1.739
338.15 K, x2 = 0.8519	1004.69	1517.9	1.557
338.15 K, x2 = 0.8751	1002.82	1525.2	1.466
338.15 K, x2 = 0.8852	1001.85	1528.2	1.42
338.15 K, x2 = 0.9001	1000.23	1532.8	1.34
338.15 K, x2 = 0.9251	996.917	1539.1	1.18
338.15 K, x2 = 0.9357	995.252	1541.5	1.1
338.15 K, x2 = 0.9554	991.671	1545.5	0.931
338.15 K, x2 = 0.9649	989.687	1547	0.84
338.15 K, x2 = 0.9749	987.393	1548.4	0.736
338.15 K, x2 = 0.9903	983.396	1550.2	0.56

— the NIST ThermoML archive (doi:10.1021/je0340809)
